“Also recorded” adds a separate entry of the source. Where a SMILES comes first, the peptide text is derived from it. [ ]: non-standard residue; d: D form. dNle = CCCC[C@@H](N)C(=O)O; Ahx = NCCCCCC(=O)O
How the values were obtained:
[1] = Blood stability in heparinized rat blood; type: in vitro ADME; conditions: 37° C.; single phase exponential decay
Protocol: At the end of each incubation, 20 μL of […]

[2] = molecular target: T1, human HGF (Homo sapiens, UniProt P14210); experiment: HGF dimerization (PAGE, silver staining); type: biochemical; conditions: analog 10^−10 M, heparin, 30 minute incubation
T1 construct: purchased R&D Systems (Minneapolis, Minn.)
T1 sequence (P14210 32-728): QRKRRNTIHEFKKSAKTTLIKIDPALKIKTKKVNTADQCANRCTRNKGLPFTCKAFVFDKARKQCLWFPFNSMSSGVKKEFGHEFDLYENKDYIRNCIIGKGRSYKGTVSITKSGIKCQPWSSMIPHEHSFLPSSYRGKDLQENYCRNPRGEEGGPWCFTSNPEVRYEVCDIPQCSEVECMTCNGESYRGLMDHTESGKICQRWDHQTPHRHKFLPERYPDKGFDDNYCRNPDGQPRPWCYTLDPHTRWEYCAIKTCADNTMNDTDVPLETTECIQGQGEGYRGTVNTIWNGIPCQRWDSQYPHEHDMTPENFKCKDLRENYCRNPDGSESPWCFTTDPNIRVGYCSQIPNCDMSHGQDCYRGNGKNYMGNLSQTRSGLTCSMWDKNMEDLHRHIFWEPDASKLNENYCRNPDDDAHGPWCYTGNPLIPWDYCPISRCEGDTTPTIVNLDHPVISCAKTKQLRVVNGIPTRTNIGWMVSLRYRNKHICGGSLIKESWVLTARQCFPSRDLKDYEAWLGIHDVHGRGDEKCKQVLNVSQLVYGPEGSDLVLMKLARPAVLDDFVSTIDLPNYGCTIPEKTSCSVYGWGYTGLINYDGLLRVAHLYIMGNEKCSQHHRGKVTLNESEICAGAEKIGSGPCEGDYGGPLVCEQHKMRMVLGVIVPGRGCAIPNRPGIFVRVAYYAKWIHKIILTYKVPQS
Protocol: HGF dimerization was assessed using PAGE followed by silver staining (Kawas et al., 2011). Human HGF at a concentration of 0.08 ng/μl with or without 6-AH analogs was incubated with heparin at a final concentration of 5 μg/ml. Loading buffer was then added to each sample and the mixture separated by native PAGE using gradient Criterion XT precast gels (4-12% Bis-Tris; Biorad Laboratories, Hercules, Calif.). Next the gel was silver stained for the detection of the HGF monomers and dimers. Bands were quantitated from digital images using a UVP phosphoimager (Upland, Calif.).

[3] = tested on: MDCK cells; experiment: HGF-dependent MDCK cell proliferation (MTT); type: cell-based, canine; conditions: analog 10^−10M, HGF 10 ng/ml, 4 days
Protocol: 5000 MDCK cells were seeded into the wells of a 96 well plates in 10% FBS DMEM. To induce cellular quiescence, the cells were serum deprived for 24 h prior to initiating the treatments. Following serum starvation, 10 ng/ml HGF alone and with various concentrations of 6-AH analogs or PBS vehicle were added to the media. The cells were allowed to grow under these conditions for 4 days with a daily addition of 6-AH analogs. On the fourth day, 1 mg/ml of […] (MTT, Sigma-Aldrich) prepared in PBS was added to the cells and incubated for 4 h. Dimethyl sulfoxide diluted in a 0.01M glycine buffer was added to solubilize the cell membranes and the absorbance of reduced MTT in the buffer was quantitated at 590 nm using a plate reader (Biotek Synergy 2, Winooski, Vt.). HGF-dependent proliferation was determined by subtracting the basal proliferation (in the absence of HGF) from total proliferation rates in groups containing HGF.

[4] = rat, in vivo, iv, 24 mg/kg
Protocol: Male Sprague-Dawley rats (250+ g) were allowed food (Harlan Teklad rodent diet) and water ad libitum in our AAALAC certified animal facility. Rats were housed in temperature-controlled rooms with a 12 h light/dark cycle. The right jugular veins of the rats were catheterized with sterile polyurethane Hydrocoat™ catheters (Access Technologies, Skokie, Ill., USA) under ketamine (Fort Dodge Animal Health, Fort Dodge, Iowa, USA) and isoflurane (Vet One™, MWI, Meridian, Id., USA) anesthesia. The catheters were exteriorized through the dorsal skin. The catheters were flushed with heparinized saline before and after blood sample collection and filled with heparin-glycerol locking solution (6 mL glycerol, 3 mL saline, 0.5 mL gentamycin (100 mg/mL), 0.5 mL heparin (10,000 u/mL)) when not used for more than 8 h. The animals were allowed to recover from surgery for several days before use in any experiment, and were fasted overnight prior to the pharmacokinetic experiment. […]
Pharmacokinetic analysis was performed using data from individual rats. The mean and standard deviation (SD) were calculated for the group. Noncompartmental pharmacokinetic parameters were calculated from serum drug concentration-time profiles by use of WinNonlin® software (Pharsight, Mountain View, Calif., USA).

[5] = tested on: B16-F10 murine melanoma cells; experiment: B16-F10 melanoma lung colony formation; type: in vivo, mouse; conditions: C57BL/6 mice; daily IP 10 μg/kg/day or 100 μg/kg/day, 14 days
Protocol: Six to eight month old C57BL/6 mice were injected with 400,000 B16-F10 cells in 200 μl PBS by tail vein injection and subsequently received daily intraperitoneal injections of either D-Nle-X-Cys-NH—(CH2)5—CONH2 (10 μg/kg and 100 μg/kg) or a PBS vehicle control. Two weeks later, mice were anesthetized and lungs were perfused with PBS and removed. Photos were taken and lungs were solubilized in 1% Triton x-100, 20 mM Tris, 0.15 M NaCl, 2 mM EDTA, and 0.02% sodium azide. Samples were disrupted by sonication (Mixonix, Farmingdale, N.Y.) and spun. The supernatant was transferred to a 96 well plate and melanin absorbance at […] was measured using a plate reader.

[6] = tested on: scopolamine treated rats; experiment: Morris water maze, scopolamine amnesia model; type: in vivo, rat; conditions: for mean latency to find the pedestal: icv, Dihexa, Hinge 300 pmol, scopolamine 70 nmol
Protocol: Swim speed was determined from these values.

[7] = tested on: hippocampal neurons; experiment: Dendritic spine counts (spinogenesis) in mRFP-β-actin transfected dissociated hippocampal neurons; type: cell-based, rat
Protocol: Hippocampal neurons (2×10^5 cells per square cm) were cultured from P1 Sprague Dawley rats on plates coated with poly-L-lysine from Sigma (St. Louis, Mo.; molecular weight 300,000). […] Each experiment was repeated at least three times using independent culture preparations. […] Hippocampal neurons (2×10^5 cells per square centimeter) were cultured from P1-2 Sprague Dawley rats on plates coated with poly-L-lysine from Sigma (St. Louis, Mo.; molecular weight 300,000). Hippocampal neurons were maintained in Neurobasal A media from Invitrogen (Carlsbad, Calif.) supplemented with B27 from Invitrogen, 0.5 mM L-glutamine, and […] cytosine-D-arabinofuranoside from Sigma added at 2 days in vitro. Hippocampal neurons were then cultured a further 3-7 days, at which time they were either transfected or treated with various pharmacological reagents as described in the text or figure legends. Neurons were transfected with mRFP-β-actin on day in vitro 6 […] using LipofectAMINETM 2000 (Invitrogen) according to the manufacturer's protocol. […] On DIV7 the cells were treated with vehicle (H20) or peptides (as described in the text) added to media. […] Five 50 μm long segments of dendrite from at least 10 neurons per data point were analyzed for each data point reported. Each experiment was repeated at least three times using independent culture preparations. […] A target sequence for c-Met was designed using RNAi central design program (see the website located at […].edu/). The target sequence […] NO: 2) was inserted into pSUPER vector (Oligoengine, Seattle Wash.) which drives endogenous production of shRNA under the H1 promoter. The shRNA was transfected into cells using the lipofectamine method described above. Verification of receptor knockdown was done by creating a c-[…]-Myc tagged gene product using the Gateway cloning system (Invitrogen). The Met protein coding sequence was cloned from rat whole brain cDNA using primers obtained from Integrated DNA Technologies, Inc. The amplified product was gel purified and a band corresponding to 190 kDa band excised and cloned into a […] destination vector (Gateway). Hippocampal neurons (2×10^5 cells per square cm) were cultured from P1 Sprague Dawley rats on plates coated with poly-L-lysine from Sigma (St. Louis, Mo.; molecular weight […]).

[8] = tested on: hippocampal neurons; experiment: Whole-cell recordings of mEPSCs in dissociated hippocampal neurons; type: cell-based, rat; conditions: Dihexa, Hinge 10^−12 M; HGF 10 ng/ml; 5 days
[9] = tested on: MDCK cells; experiment: Inhibition of HGF-dependent scattering in MDCK cells; type: cell-based, canine
Protocol: (§1) MDCK cells were grown to 100% confluency on the coverslips in six-well plates and washed twice with PBS. The confluent coverslips were then aseptically transferred to new six well plates containing 900 μl serum free DMEM. Norleual, Hinge peptide, and/or HGF (20 ng/ml) were added to appropriate wells. Control wells received PBS vehicle. Plates were incubated at 37° C. with 5% CO2 for 48 hours. Media was removed and cells were fixed with methanol. Cells were stained with Diff-Quik Wright-Giemsa (Dade-Behring, Newark, Del.) and digital images were taken. Coverslips were removed with forceps and more digital images were captured. Pixel quantification of images was achieved using Image J and statistics were performed using Prism 5 and InStat v.3.05.
as §1, with “h.” for “hours.”, “Cells were stained with Diff-Quik Wright-Giemsa (Dade-Behring, Newark, Del.) and digital images were taken. Coverslips were removed with forceps and more digital images were captured.” left out, “v.3.05 (GraphPad; San Diego, Calif.).” for “v.3.05.”

| Compound | stability t1/2 in heparinized rat blood [1] [h] | inhibition of HGF dimerization [2] | inhibition of HGF dimerization ([2]; listed as Tyr) | inhibition of HGF-dependent MDCK cell proliferation [3] | Cp^0 [4] [ng/mL] | KE [4] [min⁻¹] | inhibition of HGF dimerization ([2]; listed as Cys) | B16-F10 melanoma lung colonization [5] | mean latency to find the pedestal ([6]; day one of training) [s] | mean latency to find the pedestal ([6]; final day of training (day 8)) [s] | mean latency to find the pedestal ([6]; fourth day of training) [s] | latency to escape, Morris water maze (FIG. 21) ([6]; i.c.v. injections, 8 days of training) | inhibition of HGF-, Nle1-AngIV- and Dihexa-induced spinogenesis by Hinge ([7]; Hinge 10^−12 M, HGF 10 ng/ml, Nle1-AngIV or Dihexa 10^−12 M) | effect of Hinge alone on spinogenesis ([7]; wide range of doses) | mean frequency of mEPSCs [8] | inhibition of MDCK cell scattering by Hinge [9] |
| --- | --- | --- | --- | --- | --- | --- | --- | --- | --- | --- | --- | --- | --- | --- | --- | --- |
| CCCC[C@@H](N)C(=O)N[C@@H](Cc1ccc(O)cc1)C(=O)N[C@H](C(=O)NCCCCCC(N)=O)[C@@H](C)CC (H-[dNle]YI[Ahx]-NH2) | 1.333 | completely block HGF dimer formation | statistically different than the HGF treated group | marked inhibitory activity | 68.2 ± 32.2 | 0.001 ± 0.0002 | – | – | – | – | – | – | – | – | – | – |
| CCCC[C@@H](N)C(=O)N[C@@H](CS)C(=O)N[C@H](C(=O)NCCCCCC(N)=O)[C@@H](C)CC [D-Nle-Cys-Ile-NH—(CH2)5—CONH2] (H-[dNle]CI[Ahx]-NH2) | – | completely block HGF dimer formation | – | marked inhibitory activity | – | – | statistically different than the HGF treated group | suppressed pulmonary colonization; also recorded: radically prevented lung colonization; also recorded: obvious reduction in melanoma colonies | – | – | – | – | – | – | – | – |
| Hinge: novel HGF antagonist Hinge (DYIRNC, SEQ ID NO: 3); elsewhere Hinge peptide (KDYIRN), the dimerization domain of HGF (Synthetic hinge peptide) [reference compound] | – | – | – | – | – | – | – | – | 111.1 | 46.1 | 78.3 | no effect on learning | effectively inhibit spine formation; also recorded: inhibits HGF-induced spinogenesis; also recorded: inhibits Nle1-AngIV-induced spinogenesis; also recorded: inhibits Dihexa-induced spinogenesis | no effect on spinogenesis over a wide range of doses; also recorded: does not affect spinogenesis | 4.51±0.47 | inhibit scattering of Madin-Darby canine kidney (MDCK) cells |

Source: US9051351B2, “Hepatocyte growth factor mimics as therapeutic agents” (Washington State University, priority 2011, dated 2015)
